{"source": "ChEMBL document CHEMBL5046291", "about": "“Evodiamine-Inspired Topoisomerase-Histone Deacetylase Dual Inhibitors: Novel Orally Active Antitumor Agents for Leukemia Therapy” (J Med Chem, 2022)", "key": {"[1]": {"target": "T1, DNA topoisomerase 1 (Homo sapiens) (UniProt P11387)", "T1 sequence (whole entry)": "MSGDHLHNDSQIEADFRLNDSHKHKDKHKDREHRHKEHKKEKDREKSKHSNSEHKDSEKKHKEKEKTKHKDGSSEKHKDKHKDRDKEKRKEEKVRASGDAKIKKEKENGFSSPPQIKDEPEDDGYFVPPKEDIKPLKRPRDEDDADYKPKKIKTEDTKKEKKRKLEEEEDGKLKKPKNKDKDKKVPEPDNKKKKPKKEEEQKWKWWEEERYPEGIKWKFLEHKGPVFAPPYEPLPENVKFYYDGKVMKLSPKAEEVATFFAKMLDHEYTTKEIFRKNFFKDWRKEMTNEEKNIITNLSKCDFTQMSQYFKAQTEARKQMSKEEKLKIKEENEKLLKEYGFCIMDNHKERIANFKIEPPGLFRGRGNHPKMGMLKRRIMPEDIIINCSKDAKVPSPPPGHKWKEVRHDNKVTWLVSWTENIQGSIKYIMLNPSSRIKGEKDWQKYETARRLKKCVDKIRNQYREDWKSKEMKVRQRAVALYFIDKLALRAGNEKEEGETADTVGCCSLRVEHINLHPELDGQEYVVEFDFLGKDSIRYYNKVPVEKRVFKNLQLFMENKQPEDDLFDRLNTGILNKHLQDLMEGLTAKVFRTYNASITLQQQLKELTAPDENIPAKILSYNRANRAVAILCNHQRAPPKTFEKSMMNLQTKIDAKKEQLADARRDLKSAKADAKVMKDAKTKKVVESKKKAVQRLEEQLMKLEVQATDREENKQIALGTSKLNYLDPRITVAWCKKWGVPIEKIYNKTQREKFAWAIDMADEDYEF", "assay": "Inhibition of recombinant Top1 (unknown origin) assessed as inhibition of relaxation of supercoiled pBR322 plasmid DNA at 100 uM incubated for 15 mins by ethidium bromide staining based agarose gel electrophoresis analysis"}, "[2]": {"target": "DNA topoisomerase 2-alpha (Homo sapiens) (UniProt P11388)", "sequence (P11388 whole entry)": "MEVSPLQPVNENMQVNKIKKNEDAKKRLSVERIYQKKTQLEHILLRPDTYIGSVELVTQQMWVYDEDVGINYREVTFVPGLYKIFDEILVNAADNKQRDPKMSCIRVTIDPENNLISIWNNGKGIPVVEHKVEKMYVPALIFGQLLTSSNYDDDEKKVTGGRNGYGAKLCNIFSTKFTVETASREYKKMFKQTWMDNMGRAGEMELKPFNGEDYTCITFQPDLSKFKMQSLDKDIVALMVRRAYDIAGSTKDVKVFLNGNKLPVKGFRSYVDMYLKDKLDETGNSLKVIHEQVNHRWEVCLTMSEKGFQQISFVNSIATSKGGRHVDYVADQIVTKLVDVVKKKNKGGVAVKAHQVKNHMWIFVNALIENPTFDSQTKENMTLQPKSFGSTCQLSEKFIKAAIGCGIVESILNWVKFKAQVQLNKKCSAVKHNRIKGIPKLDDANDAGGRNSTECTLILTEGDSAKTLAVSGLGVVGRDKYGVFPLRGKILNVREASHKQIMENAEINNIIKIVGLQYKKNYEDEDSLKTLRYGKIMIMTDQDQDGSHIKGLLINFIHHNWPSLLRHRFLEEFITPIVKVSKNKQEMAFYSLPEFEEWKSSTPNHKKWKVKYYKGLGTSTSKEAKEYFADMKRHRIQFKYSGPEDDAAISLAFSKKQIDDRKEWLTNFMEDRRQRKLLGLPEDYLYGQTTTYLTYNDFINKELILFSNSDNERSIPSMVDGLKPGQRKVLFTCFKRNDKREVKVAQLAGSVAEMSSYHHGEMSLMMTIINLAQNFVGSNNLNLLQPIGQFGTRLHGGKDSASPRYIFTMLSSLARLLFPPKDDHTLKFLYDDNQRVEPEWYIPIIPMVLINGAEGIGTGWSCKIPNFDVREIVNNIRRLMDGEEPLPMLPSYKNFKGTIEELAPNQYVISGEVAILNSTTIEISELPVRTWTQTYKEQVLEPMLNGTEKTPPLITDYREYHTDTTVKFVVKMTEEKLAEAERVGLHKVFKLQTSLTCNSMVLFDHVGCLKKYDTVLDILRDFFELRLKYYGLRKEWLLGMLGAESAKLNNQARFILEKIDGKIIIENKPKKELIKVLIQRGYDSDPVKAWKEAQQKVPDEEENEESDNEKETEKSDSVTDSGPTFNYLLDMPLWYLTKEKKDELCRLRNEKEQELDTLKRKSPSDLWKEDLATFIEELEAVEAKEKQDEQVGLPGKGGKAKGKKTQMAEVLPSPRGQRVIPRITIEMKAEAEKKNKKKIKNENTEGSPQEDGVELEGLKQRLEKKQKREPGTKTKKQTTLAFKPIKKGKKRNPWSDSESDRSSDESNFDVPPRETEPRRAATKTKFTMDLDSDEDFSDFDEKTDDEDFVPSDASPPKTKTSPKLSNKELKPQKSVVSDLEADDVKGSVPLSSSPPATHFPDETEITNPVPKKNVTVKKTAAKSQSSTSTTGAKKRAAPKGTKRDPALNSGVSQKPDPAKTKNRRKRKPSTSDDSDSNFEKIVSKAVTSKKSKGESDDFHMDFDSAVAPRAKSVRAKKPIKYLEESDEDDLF", "assay": "Inhibition of recombinant Top2 (unknown origin) assessed as inhibition of relaxation of supercoiled pBR322 plasmid DNA at 50 uM incubated for 15 mins by ethidium bromide staining based agarose gel electrophoresis analysis"}, "MCF7": {"test_system": "MCF7", "assay": "Antiproliferative activity against human MCF7 cells assessed as cell growth inhibition incubated for 8 hrs by CCK8 assay", "assay_type": "functional, cell-based", "conditions": "MCF7, 8 h"}, "A549": {"test_system": "A549", "assay": "Antiproliferative activity against human A549 cells assessed as cell growth inhibition incubated for 8 hrs by CCK8 assay", "assay_type": "functional, cell-based", "conditions": "A549, 8 h"}, "HCT-116": {"test_system": "HCT-116", "assay": "Antiproliferative activity against human HCT-116 cells assessed as cell growth inhibition incubated for 8 hrs by CCK8 assay", "assay_type": "functional, cell-based", "conditions": "HCT-116, 8 h"}, "HepG2": {"test_system": "HepG2", "assay": "Antiproliferative activity against human HepG2 cells assessed as cell growth inhibition incubated for 8 hrs by CCK8 assay", "assay_type": "functional, cell-based", "conditions": "HepG2, 8 h"}, "HEL [3]": {"test_system": "HEL", "assay": "Antiproliferative activity against HEL cells assessed as cell growth inhibition incubated for 8 hrs by CCK8 assay", "assay_type": "functional, cell-based", "conditions": "Homo sapiens"}, "[4]": {"target": "DNA topoisomerase 2-alpha (Homo sapiens) (UniProt P11388)", "assay": "Inhibition of recombinant Top2 (unknown origin) assessed as inhibition of relaxation of supercoiled pBR322 plasmid DNA at 100 uM incubated for 15 mins by ethidium bromide staining based agarose gel electrophoresis analysis"}, "[5]": {"target": "T2, Protein deacetylase HDAC6 (Homo sapiens, UniProt Q9UBN7)", "T2 sequence (Q9UBN7 whole entry)": "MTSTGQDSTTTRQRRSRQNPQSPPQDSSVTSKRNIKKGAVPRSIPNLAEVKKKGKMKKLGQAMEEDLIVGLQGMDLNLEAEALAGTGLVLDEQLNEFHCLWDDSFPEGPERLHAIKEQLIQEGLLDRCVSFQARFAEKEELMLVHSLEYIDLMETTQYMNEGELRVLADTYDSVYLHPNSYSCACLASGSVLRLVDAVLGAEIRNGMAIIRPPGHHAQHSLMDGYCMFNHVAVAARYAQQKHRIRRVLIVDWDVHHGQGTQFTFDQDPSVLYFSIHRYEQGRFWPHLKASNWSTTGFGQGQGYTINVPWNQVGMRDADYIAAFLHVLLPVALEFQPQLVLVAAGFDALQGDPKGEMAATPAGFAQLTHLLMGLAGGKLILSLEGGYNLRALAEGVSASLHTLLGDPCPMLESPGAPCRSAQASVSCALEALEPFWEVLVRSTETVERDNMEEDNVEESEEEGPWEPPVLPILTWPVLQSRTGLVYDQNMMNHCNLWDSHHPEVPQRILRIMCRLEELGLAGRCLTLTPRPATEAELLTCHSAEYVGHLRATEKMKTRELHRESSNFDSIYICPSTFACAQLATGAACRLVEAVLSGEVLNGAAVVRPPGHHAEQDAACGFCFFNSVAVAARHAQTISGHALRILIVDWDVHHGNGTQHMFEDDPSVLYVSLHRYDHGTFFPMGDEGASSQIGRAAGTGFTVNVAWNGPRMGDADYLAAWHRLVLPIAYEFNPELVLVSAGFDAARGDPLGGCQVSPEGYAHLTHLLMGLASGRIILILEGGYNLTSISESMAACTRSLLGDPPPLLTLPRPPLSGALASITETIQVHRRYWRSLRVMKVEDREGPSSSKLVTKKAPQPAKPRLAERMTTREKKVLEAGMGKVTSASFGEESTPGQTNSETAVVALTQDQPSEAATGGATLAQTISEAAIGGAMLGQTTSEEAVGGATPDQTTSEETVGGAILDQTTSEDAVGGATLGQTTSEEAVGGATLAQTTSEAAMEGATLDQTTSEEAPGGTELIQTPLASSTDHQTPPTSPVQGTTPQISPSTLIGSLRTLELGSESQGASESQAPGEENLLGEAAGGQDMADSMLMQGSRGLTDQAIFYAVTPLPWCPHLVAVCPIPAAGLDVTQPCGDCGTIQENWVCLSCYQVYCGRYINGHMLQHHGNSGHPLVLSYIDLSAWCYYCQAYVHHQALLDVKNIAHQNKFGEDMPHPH", "assay": "Inhibition of full-length recombinant N-terminal GST-tagged human HDAC6 expressed in baculovirus infected Sf9 cells using Ac-Leu-Gly-Lys(Ac)-AMC as substrate preincubated for 5 mins followed by substrate addition and further incubated for 30 mins by fluorescence based microtiter plate reader assay"}, "HEL [6]": {"test_system": "HEL", "assay": "Induction of apoptosis in HEL cells assessed as apoptotic cells at 0.1 uM incubated for 48 hrs by annexin V-FITC/PI staining based flow cytometry (reference value: 3.95%)", "assay_type": "functional, Homo sapiens"}, "HEL [7]": {"test_system": "HEL", "assay": "Induction of cell cycle arrest in HEL cells assessed as change in S-phase ratio at 0.1 uM incubated for 48 hrs by PI staining based flow cytometry relative to control", "assay_type": "functional, Homo sapiens"}, "[8]": {"assay": "Metabolic stability in ICR mouse liver microsome assessed as half life", "assay_type": "ADME", "conditions": "liver microsomes"}, "[9]": {"assay": "Metabolic stability in ICR mouse liver microsome assessed as clearance", "assay_type": "ADME", "conditions": "microsomes"}, "HEL [10]": {"test_system": "HEL", "assay": "Antitumor activity against HEL cells xenografted in BALB/C mouse assessed as T/C value at 10 mg/kg, po qd for 14 days consecutively by caliper method relative to control", "assay_type": "functional, Homo sapiens", "conditions": "time 14 day"}}, "note": "Active and inactive are the calls of the source. The rule behind the calls is not given here."}
{"molecule": "CN1c2ccc(F)cc2C(=O)N2CCc3c([nH]c4ccc(OCc5ccc(/C=C/C(=O)NO)cc5)cc34)C21", "note": "(centres undefined)", "values": [{"measurement": "inhibition", "setting": "[1]", "value": "Active"}, {"measurement": "inhibition", "setting": "[2]", "value": "Active"}, {"measurement": "IC50", "setting": "MCF7", "value": "> 2000", "unit": "nM"}, {"measurement": "IC50", "setting": "A549", "value": 680, "unit": "nM"}, {"measurement": "IC50", "setting": "HCT-116", "value": 210, "unit": "nM"}, {"measurement": "IC50", "setting": "HepG2", "value": 260, "unit": "nM"}, {"measurement": "IC50", "setting": "HEL [3]", "value": 29, "unit": "nM"}, {"measurement": "inhibition", "setting": "[4]", "value": "Active"}, {"measurement": "IC50", "setting": "[5]", "value": 89, "unit": "nM"}, {"measurement": "Activity", "setting": "HEL [6]", "value": 56.02, "unit": "%"}, {"measurement": "Activity", "setting": "HEL [7]", "value": 15.4, "unit": "%"}, {"measurement": "half-life", "setting": "[8]", "value": 31.5, "unit": "min"}, {"measurement": "CLH", "setting": "[9]", "value": 173, "unit": "mL/min/kg"}, {"measurement": "T/C", "setting": "HEL [10]", "value": 25.5, "unit": "%"}]}
